Measurements from US20080152640A1, “Means and Methods For Treating a Disease Which is Associated With an Excess Transport of Hyaluronan Across a Lipid Bilayer” (priority 2003, published 2008).
Where two headings read alike, the source gives them in different places.

Experiments:
human skin fibroblasts = assay: Proliferation of human skin fibroblasts (cell counting); type: cell-based; conditions: for IC50: read-out: Proliferation (IC50)
Description: Human fibroblasts were grown in […] in Dulbecco's modified Eagles medium supplemented with streptomycin/penicillin (100 units of each/ml), kanamycin (100 units/ml) and 10% foetal calf serum. Cell proliferation was determined by cell counting after trypsinisation three days after seeding.

human fibroblasts [1] = assay: Hyaluronan production of human fibroblasts (ELISA of culture medium); type: cell-based; conditions: for IC50: read-out: HA production (IC50); for hyaluronan in culture medium: human skin fibroblasts / fibroblast cell line, increasing concentrations, 3 days
human fibroblasts [2] = assay: Export of fluorescent hyaluronan oligosaccharides from the cytosol of human fibroblasts; type: cell-based
Description: The media were withdrawn and the cells were incubated at 37° C. with DMEM/water (3:2, v/v) for 2 min. The cells were subjected twice to this incubation sequence and then grown further in DMEM. […] Fluorescent high molecular weight hyaluronan and fluorescent oligosaccharides were introduced into the cytosol by osmotic lysis of pinocytotic vesicles. The kinetics of export was measured in a fluorescent ELISA reader in the presence and absence of the hyaluronan transport inhibitor benzbromaron.

hyaluronan synthase = conditions: for hyaluronan transport / synthase activity in membranes: membranes from human fibroblasts; for IC50: read-out: HA synthase activity (IC50), membranes of human fibroblasts
MRP5 = MRP5 (Homo sapiens, UniProt O15440); conditions: cited from earlier work
MDR1 = MDR1 (Homo sapiens, UniProt P08183); conditions: cited from earlier work
MRP4 = target: T1, MRP4 (Homo sapiens, UniProt O15439); conditions: cited from earlier work
T1 sequence (O15439 1-1325): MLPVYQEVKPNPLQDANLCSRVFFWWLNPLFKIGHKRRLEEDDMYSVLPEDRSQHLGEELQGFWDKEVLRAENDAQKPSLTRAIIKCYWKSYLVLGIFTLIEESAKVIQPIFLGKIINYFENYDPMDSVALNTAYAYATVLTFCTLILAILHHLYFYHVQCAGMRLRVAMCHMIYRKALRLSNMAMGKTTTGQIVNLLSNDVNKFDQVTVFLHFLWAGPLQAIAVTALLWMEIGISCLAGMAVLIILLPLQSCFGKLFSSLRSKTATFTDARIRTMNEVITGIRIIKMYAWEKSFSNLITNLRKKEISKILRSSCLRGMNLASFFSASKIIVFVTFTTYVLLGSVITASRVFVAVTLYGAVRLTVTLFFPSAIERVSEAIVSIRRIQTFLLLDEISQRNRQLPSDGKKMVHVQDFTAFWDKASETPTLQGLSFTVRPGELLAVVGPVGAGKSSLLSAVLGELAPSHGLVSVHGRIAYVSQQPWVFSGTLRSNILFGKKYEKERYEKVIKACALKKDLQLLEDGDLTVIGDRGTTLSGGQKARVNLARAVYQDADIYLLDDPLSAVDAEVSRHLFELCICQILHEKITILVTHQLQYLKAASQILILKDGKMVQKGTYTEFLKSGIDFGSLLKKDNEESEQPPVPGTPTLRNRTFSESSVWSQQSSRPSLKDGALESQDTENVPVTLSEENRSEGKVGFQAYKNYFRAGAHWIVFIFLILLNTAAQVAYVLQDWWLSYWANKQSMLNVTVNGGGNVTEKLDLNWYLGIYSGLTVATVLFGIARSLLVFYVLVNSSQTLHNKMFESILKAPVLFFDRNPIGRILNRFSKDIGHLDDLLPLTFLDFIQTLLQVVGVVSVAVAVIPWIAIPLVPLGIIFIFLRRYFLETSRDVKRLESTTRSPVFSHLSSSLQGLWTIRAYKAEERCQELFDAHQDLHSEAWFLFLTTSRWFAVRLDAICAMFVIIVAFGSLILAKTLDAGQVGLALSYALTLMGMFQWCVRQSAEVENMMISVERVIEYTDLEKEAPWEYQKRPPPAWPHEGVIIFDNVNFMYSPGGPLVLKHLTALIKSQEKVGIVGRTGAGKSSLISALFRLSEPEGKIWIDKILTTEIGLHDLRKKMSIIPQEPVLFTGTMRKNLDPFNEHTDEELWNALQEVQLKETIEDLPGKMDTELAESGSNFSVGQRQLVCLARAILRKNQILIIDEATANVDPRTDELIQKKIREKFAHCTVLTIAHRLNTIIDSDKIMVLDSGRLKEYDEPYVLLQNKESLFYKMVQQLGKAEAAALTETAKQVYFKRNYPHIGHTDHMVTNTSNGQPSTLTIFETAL

hyaluronan transport = assay: Inhibition of hyaluronan transport (export) from human fibroblasts, discussion of Example 9; conditions: for IC50: Homo sapiens, Fibroblast, read-out: IC50 for hyaluronan transport (export); for inhibition of hyaluronan transport (words): human fibroblasts
Description: Cells from five culture flasks (180 cm2 growth area) were washed with cold phosphate buffered saline (PBS), harvested with the aid of a rubber policeman, sedimented at 1500 g for 5 min and suspended in 30 ml of ice-cold PBS. The cells were transferred into a Parr-cell disruption bomb, exposed to a nitrogen pressure of 900 psi for 15 min and disrupted by nitrogen cavitation [18] and the particulate fraction was obtained by centrifugation at 40000 g for 20 min. […] Hyaluronan synthesis was stopped by adding a solution of 10% sodium dodecylsuifate (SDS) to a final concentration of 1%. The mixtures were applied to descending paper chromatography that was developed with ethanol/aq. 1 M ammonium acetate pH 5.5 (13:7) as solvent. After 18 h the radioactivity of [14C]hyaluronan at the origin was determined.
Trypsinised fibroblasts were suspended in Dulbecco's medium at 10^5 cells/ml and 100 μl aliquots were transferred to a 96 well microtiter plate. The first row received 200 μl of the suspension and 20 μl of the multidrug resistance inhibitors dissolved in DMSO at concentrations of 4 mM. A serial dilution to the inhibitors was established by transfer of 100 μl aliquots from the first row to the following rows. All experiments were performed in duplicates. […] The cells were incubated for 2 days at 37° C. and aliquots (5 and 20 μl) of the culture medium were used for measurement of the hyaluronan concentration in the cell culture medium by an ELISA [19]. […] The mixtures were transferred to the hyaluronan-coated test plate and incubated for 1 hour at 37° C. The microtiter plate was washed three times with buffer A and incubated with 100 μl/well of a solution of streptavidin-horseraddish-peroxidase (Amersham) at a dilution of 1:100 in phosphate buffered saline, 0.1% Tween-20 for 30 min at room temperature. The plate was washed five times with buffer A and the colour was developed by incubation with a 100 μl/well of a solution of 5 mg o-phenylenediamine and 5 μl 30% H2O2 in 10 ml of 0.1 M citrate-phosphate buffer pH 5.3 for 25 min at room temperature. The adsorption was read at 490 nm. The concentrations in the samples were calculated from a logarithmic regression curve of the hyaluronan standard solutions.
Three parameters were measured: 1. The amount of hyaluronan produced during growth into the culture supernatant. 2. The hyaluronan synthase activity in particulate membrane fractions to eliminate the possibility that inhibition of hyaluronan production in cell culture could be caused indirectly by cellular mediators. 3. The effect on cell proliferation, because hyaluronan synthesis is also required for detachment during mitosis and growth of the human HT1080 cell line [14].

MRP transporters = tested on: T2, MRP transporters; conditions: human erythrocytes; cited from earlier work
T2 construct: other: human erythrocytes

chloride channel = conditions: cited from earlier work
MRP1 = MRP1 (Homo sapiens, UniProt P33527); conditions: cited from earlier work
ABCA = conditions: ABCA1; read-out: IC50, secretion of macrophage inhibitory factor (ABCA1); cited from earlier work
MRP2 = MRP2 (Homo sapiens, UniProt Q92887); conditions: cited from earlier work
MRP3 = MRP3 (Homo sapiens, UniProt O15438); conditions: cited from earlier work
[3] = tested on: human synovial fibroblasts; assay: Growth of human synovial fibroblasts; type: cell-based
[4] = tested on: human synovial fibroblasts; assay: Hyaluronan production of human synovial fibroblasts; type: cell-based
membranes from HT29 = assay: Hyaluronan transport activity in isolated membranes from HT29; type: biochemical, human
[5] = tested on: osteoarthritic cartilage in rat knee joints; assay: Iodoacetate rat model of osteoarthritis, proteoglycan loss in knee cartilage; type: in vivo
Description: Osteoarthritic damage was induced in the left knees iodoacetate into the synovial cavity. The right knees remained untreated and served as controls. Three rates were feed with normal drinking water and three with drinking water containing Verapamil. After 17 days the rats were sacrificed and the articular cartilage was analysed histologically. Acid polysaccharides were stained with alcian blue and the preparation was counterstained with nuclear fast red.
The animal trials were performed in accordance with the guidelines of the local ethical committee. Osteoarthritic damage was induced in the left knees of 6 Wistar rats by injection of a solution of 50 μl of 10 mM iodoacetate into the synovial cavity. […] After 17 days the rats were sacrificed and the articular cartilage was analysed histologically. […]
Male Wistar rats (Charles River, Sulzfeld, Germany) having a body weight of 150 g were fed on ordinary laboratory diet and were housed in cages with a floor area of 800 cm^2. […] After 21 days, the rats were sacrificed and the articular cartilage was analysed by histology. […] Digital photos were taken and the blue colour of the proteoglycans was quantitatively evaluated by the free Scion Image Software. To eliminate staining artefacts, the staining of proteoglycans on the joint surface was related to the staining density at the […] and expressed as percent. […]

HT29 = assay: Hyaluronan production of colon carcinoma cell line HT29 (versus HT29-mdr); conditions: increasing concentrations
Description: Cells were seeded in 24 multiwell dished with a diameter of 2 cm^2 at a density of 2×10^4 cells/cm^2 in Dulbecco's media containing 10% foetal bovine serum and increasing concentrations of inhibitors. After incubation for 3 days at 37° C. the cells were trypsinized and counted. The concentration of hyaluronan was determined in the culture medium by an ELISA assay [87].

[6] = Fibroblast, human fibroblasts, culture medium

MRP5, sequence (O15440 whole entry): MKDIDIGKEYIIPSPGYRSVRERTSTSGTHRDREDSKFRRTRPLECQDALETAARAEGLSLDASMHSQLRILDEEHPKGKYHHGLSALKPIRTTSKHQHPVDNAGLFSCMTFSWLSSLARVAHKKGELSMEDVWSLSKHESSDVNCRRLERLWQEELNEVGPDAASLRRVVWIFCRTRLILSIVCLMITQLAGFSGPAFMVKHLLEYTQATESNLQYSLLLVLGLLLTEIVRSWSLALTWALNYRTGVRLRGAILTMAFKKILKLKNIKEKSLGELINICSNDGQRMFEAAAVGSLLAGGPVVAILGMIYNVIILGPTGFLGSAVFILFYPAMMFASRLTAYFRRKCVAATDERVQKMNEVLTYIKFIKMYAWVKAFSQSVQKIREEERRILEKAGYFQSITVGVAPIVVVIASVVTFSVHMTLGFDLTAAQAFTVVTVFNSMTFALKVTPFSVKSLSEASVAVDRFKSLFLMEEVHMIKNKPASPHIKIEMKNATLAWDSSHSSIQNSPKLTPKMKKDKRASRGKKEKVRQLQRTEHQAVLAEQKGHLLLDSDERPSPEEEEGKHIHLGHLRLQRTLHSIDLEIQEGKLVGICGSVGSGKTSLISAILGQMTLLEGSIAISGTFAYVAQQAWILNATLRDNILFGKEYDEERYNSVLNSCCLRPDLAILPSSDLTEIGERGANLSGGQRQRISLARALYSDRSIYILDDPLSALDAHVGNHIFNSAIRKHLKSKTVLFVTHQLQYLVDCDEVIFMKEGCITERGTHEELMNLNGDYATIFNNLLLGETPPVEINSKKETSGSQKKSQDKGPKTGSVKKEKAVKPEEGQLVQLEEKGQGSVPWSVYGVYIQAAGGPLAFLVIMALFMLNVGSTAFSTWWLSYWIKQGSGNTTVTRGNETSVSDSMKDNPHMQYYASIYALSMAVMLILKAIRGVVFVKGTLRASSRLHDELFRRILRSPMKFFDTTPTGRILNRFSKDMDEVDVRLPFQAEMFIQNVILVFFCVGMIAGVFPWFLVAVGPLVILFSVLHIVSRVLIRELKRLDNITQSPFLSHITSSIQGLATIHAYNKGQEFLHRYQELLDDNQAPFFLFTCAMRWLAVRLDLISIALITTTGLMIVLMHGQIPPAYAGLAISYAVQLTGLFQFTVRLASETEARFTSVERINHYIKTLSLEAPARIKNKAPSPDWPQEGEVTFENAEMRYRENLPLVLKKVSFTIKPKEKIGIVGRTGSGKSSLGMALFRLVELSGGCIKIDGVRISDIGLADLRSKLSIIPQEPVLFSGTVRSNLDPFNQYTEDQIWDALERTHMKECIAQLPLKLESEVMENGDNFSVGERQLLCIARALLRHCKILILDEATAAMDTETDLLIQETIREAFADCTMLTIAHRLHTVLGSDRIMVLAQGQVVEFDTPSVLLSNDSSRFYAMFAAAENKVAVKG
MDR1, sequence (P08183 whole entry): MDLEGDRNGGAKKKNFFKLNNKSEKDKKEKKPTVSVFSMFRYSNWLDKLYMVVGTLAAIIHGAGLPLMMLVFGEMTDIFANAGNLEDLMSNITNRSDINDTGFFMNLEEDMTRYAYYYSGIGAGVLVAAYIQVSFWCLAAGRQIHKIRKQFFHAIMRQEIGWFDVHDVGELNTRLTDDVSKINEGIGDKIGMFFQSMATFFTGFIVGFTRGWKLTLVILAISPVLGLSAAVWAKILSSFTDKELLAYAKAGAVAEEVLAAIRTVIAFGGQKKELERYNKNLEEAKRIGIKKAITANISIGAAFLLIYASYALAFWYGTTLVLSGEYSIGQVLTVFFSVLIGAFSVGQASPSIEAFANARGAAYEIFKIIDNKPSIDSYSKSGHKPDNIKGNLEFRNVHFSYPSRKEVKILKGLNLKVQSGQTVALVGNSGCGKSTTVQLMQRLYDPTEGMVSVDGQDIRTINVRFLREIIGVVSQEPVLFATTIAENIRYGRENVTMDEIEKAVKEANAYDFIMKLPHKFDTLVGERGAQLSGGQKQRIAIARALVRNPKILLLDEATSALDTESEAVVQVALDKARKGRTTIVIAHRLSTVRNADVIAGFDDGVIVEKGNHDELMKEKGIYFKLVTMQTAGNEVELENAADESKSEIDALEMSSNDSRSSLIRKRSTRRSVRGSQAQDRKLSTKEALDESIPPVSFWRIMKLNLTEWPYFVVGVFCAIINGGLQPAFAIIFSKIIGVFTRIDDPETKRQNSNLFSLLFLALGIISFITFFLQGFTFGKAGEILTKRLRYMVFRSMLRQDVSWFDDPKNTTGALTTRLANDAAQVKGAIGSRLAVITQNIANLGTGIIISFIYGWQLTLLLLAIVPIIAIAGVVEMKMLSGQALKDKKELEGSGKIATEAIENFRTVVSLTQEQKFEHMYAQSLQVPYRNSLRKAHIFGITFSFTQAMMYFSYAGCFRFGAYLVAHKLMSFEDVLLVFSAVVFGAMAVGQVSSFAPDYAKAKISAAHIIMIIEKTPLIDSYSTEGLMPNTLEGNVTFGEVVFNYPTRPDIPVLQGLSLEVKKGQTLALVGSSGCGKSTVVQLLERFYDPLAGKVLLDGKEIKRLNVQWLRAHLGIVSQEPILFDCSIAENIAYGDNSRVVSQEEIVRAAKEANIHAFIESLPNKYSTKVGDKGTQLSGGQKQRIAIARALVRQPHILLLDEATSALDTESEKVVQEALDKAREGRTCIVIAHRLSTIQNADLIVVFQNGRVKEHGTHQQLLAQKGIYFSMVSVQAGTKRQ
MRP3, sequence (O15438 whole entry): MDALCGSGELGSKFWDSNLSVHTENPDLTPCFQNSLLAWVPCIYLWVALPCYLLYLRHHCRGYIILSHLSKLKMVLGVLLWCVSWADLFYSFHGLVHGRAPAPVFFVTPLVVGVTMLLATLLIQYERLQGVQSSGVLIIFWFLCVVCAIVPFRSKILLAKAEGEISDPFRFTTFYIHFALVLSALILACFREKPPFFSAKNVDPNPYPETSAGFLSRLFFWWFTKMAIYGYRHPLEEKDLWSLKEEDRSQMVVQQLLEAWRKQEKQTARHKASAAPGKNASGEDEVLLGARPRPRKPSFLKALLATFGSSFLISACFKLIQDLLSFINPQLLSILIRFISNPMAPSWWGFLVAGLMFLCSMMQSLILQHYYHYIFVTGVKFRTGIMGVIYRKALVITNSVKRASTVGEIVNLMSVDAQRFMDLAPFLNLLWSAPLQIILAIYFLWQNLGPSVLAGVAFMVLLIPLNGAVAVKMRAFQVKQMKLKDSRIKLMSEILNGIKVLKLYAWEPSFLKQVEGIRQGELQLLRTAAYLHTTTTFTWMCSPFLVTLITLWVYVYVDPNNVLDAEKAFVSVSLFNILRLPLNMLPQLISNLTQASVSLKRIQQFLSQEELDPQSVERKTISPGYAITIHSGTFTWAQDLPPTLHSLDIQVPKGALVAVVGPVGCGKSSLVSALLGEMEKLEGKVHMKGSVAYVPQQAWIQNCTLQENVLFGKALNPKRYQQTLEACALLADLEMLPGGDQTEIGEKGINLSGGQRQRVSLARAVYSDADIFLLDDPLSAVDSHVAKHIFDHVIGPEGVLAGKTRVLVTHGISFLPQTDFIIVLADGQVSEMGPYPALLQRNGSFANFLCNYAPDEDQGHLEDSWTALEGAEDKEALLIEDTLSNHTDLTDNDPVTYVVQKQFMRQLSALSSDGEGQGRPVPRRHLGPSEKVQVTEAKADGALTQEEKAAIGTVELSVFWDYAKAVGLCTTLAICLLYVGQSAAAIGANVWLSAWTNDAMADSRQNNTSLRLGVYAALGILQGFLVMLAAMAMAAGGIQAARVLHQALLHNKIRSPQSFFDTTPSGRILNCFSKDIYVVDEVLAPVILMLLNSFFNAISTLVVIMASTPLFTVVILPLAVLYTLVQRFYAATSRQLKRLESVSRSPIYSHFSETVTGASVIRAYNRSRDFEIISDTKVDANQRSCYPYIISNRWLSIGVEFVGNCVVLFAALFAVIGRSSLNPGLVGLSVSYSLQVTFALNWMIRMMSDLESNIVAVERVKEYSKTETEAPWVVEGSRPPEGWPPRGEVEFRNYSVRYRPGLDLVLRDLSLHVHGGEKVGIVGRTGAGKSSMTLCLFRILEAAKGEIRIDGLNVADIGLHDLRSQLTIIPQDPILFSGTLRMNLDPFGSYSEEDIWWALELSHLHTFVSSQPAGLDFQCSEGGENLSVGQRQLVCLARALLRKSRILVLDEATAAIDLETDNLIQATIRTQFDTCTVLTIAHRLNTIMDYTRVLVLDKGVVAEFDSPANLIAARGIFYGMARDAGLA

Structure (SMILES)	IC50 (human skin fibroblasts; Homo sapiens, Skin fibroblast)	IC50 (human fibroblasts [1]; Homo sapiens, Fibroblast)	hyaluronan transport / synthase activity in membranes (hyaluronan synthase)	IC50 (hyaluronan synthase)	IC50 (hyaluronan transport)	inhibition of hyaluronan transport (words) (hyaluronan transport)	IC50 (human fibroblasts [1]; [6])	hyaluronan in culture medium (human fibroblasts [1])	published inhibitory concentrations IC50 or Ki, MRP2 (MRP2)	published inhibitory concentrations IC50 or Ki, MRP3 (MRP3)	published inhibitory concentrations IC50 or Ki, MRP5 (MRP5)	published inhibitory concentrations IC50 or Ki, MRP4 (MRP4)	other results
CCc1oc2ccccc2c1C(=O)c1cc(Br)c(O)c(Br)c1 [Benzbromarone]	75 µM	30 µM	almost completely inhibited	12 µM	25 µM	very effective inhibitor							export of fluorescent hyaluronan oligosaccharides from the cytosol (human fibroblasts [2]): inhibits the export; IC50 (MRP5; read-out: IC50 for MRP5): 150 µM; IC50 (MRP5; substrate PMEA, read-out: IC50, PMEA transport by MRP5): 150 µM; IC50 (MRP5; substrate S-(2,4-dinitrophenyl)glutathione, read-out: IC50, MRP5 mediated transport of S-(2,4-dinitrophenyl)glutathione): < 5 µM; IC50 (MDR1): > 800 µM; IC50 (MRP4; read-out: IC50, 9-(2-phosphonomethoxyethyl)adenine (PMEA) transport by MRP4, substrate PMEA): 150 µM; IC50 (MRP4; read-out: IC50 for MRP4): 150 µM; IC50 (MRP4; read-out: published inhibitory concentrations IC50 or Ki, MRP4): 150 µM; inhibition of hyaluronan transport (words) (hyaluronan transport; listed as benzbromarone): inhibited hyaluronan transport
O=S(=O)(O)c1cc(N=C=S)ccc1C=Cc1ccc(N=C=S)cc1S(=O)(=O)O [DIDS, 4,4-diisothiocyanatostilbene-2,2-disulfonic acid]				> 400 µM		partially							IC50 (human skin fibroblasts; human fibroblasts): 250 µM; IC50 (human fibroblasts [1]; human fibroblasts, culture medium): 50 µM; decrease of hyaluronan transport activity (hyaluronan synthase; membranes from human fibroblast cell line): 70%; IC50 (MRP transporters): 150 to 300 µM; Ki (chloride channel): 840 nM; IC50 (MRP1): 150 to 300 µM; IC50 (MRP4): 150 to 300 µM
COc1ccc(Cl)cc1C(=O)NCCc1ccc(S(=O)(=O)NC(=O)NC2CCCCC2)cc1 [Glyburide]	7 µM			120 µM			~400 µM	partially inhibited					inhibition at 400 µM (human fibroblasts [1]; Homo sapiens, Fibroblast, even at 400 μM, read-out: inhibition of hyaluronan secretion): ≤ 50%; IC50 (ABCA): ~5 µM; concentration inhibiting MDR1 mediated export of colchicine (MDR1; substrate colchicine): about 100 μM; IC50 (MRP4; read-out: IC50, MRP4 mediated transport of cGMP, substrate cGMP, human erythrocytes): 1.9 µM
CCCCCCCCCCSC[C@H](NC(=O)CC[C@H](N)C(=O)O)C(=O)NCC(=O)O [S-decylglutathione]				40 µM		very good inhibitor	7 µM		good	low	good	good	
COc1ccc(CCN(C)CCCC(C#N)(c2ccc(OC)c(OC)c2)C(C)C)cc1OC (stereo not drawn) [Verapamil]	20 µM	15 µM	blocked the hyaluronan transport in a concentration dependent manner	~50 µM	~50 µM	inhibited also hyaluronan synthesis		reduced					cell growth (human skin fibroblasts; human skin fibroblasts, increasing concentrations, 3 days): reduced; growth of human synovial fibroblasts [3]: inhibited growth; hyaluronan production of human synovial fibroblasts [4]: inhibited; hyaluronan transport activity in membranes, sensitive cell line HT29 (membranes from HT29): inhibition is not complete; protection from proteoglycan loss ([5]; administered at the day of injury or three days later, analysed after 21 days): completely protected from proteoglycan loss; protection from proteoglycan loss ([5]; treatment started later than three days, up to 21 days after injury): partially prevent proteoglycan loss; hyaluronan transport in HT29 compared with HT29-mdr (HT29): more efficiently blocked hyaluronan transport in HT29 than in HT29-mdr
CN(Cc1cnc2nc(N)nc(N)c2n1)c1ccc(C(=O)N[C@@H](CCC(=O)O)C(=O)O)cc1 [methotrexate]	~200 µM		did not inhibit	> 400 µM		did not inhibit	~200 µM		substrate	substrate	no	substrate	published inhibitory concentrations IC50 or Ki, MRP1 (MRP1): substrate
